Reference: patent US9669016B2, “Antiparasitic effect of Bis[3,5-Bis(Benzylidene)-4-Oxo-1-Piperidinyl]amide Derivatives” (priority 2014, dated 2017)
Where two headings read alike, the source gives them in different places.

Legend:
[1] = test system: L. major metacyclic promastigotes; experiment: Murine model for cutaneous leishmaniasis (footpad infection); type: in vivo, BALB/c mice; conditions: for footpad swelling: 10^5 L. major metacyclic promastigotes, intraperitoneal daily treatment
Protocol: The in vivo experiments were comprised of four groups of five mice each: (1) infected, but not treated [control for the infection—100 μL of DMSO per day, drug diluent]; (2) treated with NC884, NC901 or NC2459, but not infected with the parasites [control for drug toxicity]; (3) infected with the parasites and treated with amphotericin B (8 mg/kg/day) [reference drug; positive control]; and (4) infected with the parasites and treated with NC884, NC901 or NC2459 [experimental group]. Luciferase expressing metacyclic promastigotes L. major (Freidlin V1) were obtained as described previously. Suspensions of 1×10^5 or 1×10^6 parasites per 50 μl of sterile DMEM (endotoxin-free) were injected with a 30G needle into the left hind footpad of BALB/c mice. Two weeks post-infection the compounds were administered once a day by intraperitoneal route, daily for 14 to 17 days. Twice a week, weights were recorded to monitor toxicity and the thickness of the infected footpad and the non-infected footpad was measured with digital calipers to monitor the progression of the disease. The parasitic load also was evaluated through in vivo imaging using luminescence (Kodak Image Station). The mice were injected intra-peritoneally with 150 mg/kg D-luciferin (Sigma, USA) 10 min before imaging, anesthetized with 1-2% isofluorane in oxygen during imaging and the net intensity emitted from the footpad was quantified using the KODAK Image Station software. Parasite burden was expressed as net intensity emitted from L. major infected footpad lesions normalized against the background fluorescence of uninfected mice. The presence/absence of parasites was confirmed by PCR using L. major methionine aminopeptidase (MetAP1) 1 specific primers: 5′-[…]-3′ (SEQ ID NO:1) and 5′-[…]-3′ (SEQ ID NO:2) on cDNA reverse transcribed from total RNA extracted from footpad lysate obtained by macerating footpad tissue fragments in Trizol (Invitrogen Life Technologies, United States) with the gentleMACS™ Dissociator (Miltenyi Biotec GmbH, Germany) following the manufacturer's protocol.

T. cruzi epimastigotes = experiment: Viability assay (Alamar Blue) on T. cruzi epimastigotes; type: cell-based; conditions: Trypanosoma cruzi
Protocol: Viability assay on mammalian cells and T. cruzi epimastigotes. The cytotoxicity and anti-trypanosomal activity of the NC compounds was tested in human Hs27 fibroblasts (ATCC CRL-1634), LLC-MK2 cells (ATCC CCL-7), RAW 264.7 murine macrophages (ATCC TIB71) (American Type Culture Collection-ATCC, Manassa, Va.), mice intraperitoneal macrophages and in epimastigote forms of T. cruzi Y strain using Alamar Blue assay (Invitrogen—Life Technology, Grand Island, N.Y.). The experiments were performed as described using a range of concentration of 500 μM to 1 nM.

L. major promastigotes = experiment: Mitoprobe JC-1 mitochondrial membrane potential assay; type: cell-based, Leishmania major; conditions: three concentrations, four hours
Protocol: L. major promastigotes and intraperitoneal macrophages from BALB/c mice were treated with each compound at three concentrations for four hours. Then, cells were stained with 2 μM of the fluorophore 5,5′,6,6′-tetrachloro-1,1′,3,3′-tetraethylbenzimidazolylcarboncyanine iodide (JC-1) following a modified version of manufacturer's instruction (Life Technologies, Grand Island, N.Y.). The disruption of mitochondrial Δψm is evidenced by an appreciable shift of the fluorescence signal from red to green. JC-1 aggregates or monomers, emitting red or green signal, were identified via flow cytometer (Cytomics Fc500) by using FL-2 or FL-1 detectors, respectively. A proton ionophore that dissipates the mitochondrial Δψm carbonyl cyanide 3-chlorophenylhydrazone (CCCP) at 50 μM, was used as a positive control. Cells treated with the diluent of the compounds (DMSO) and untreated were used as negative controls. Data collection and analysis was performed by using CXP software (Beckman Coulter). JC-1 is the most widely applied method for detecting mitochondrial depolarization occurring in the early stages of apoptosis.

[2] = test system: Leishmania major promastigotes; experiment: Luciferase survival assay on L. major promastigotes; type: cell-based
Protocol: Evaluation of the NC library activity against Leishmania major. The NC library (136 compounds) was screened using firefly luciferase-expressing L. major promastigotes referred to as Lmj-FV1-LUC-TK (L. major strain Friedlin (MHOM/JL/80/Friedlin) clone V1) engineered to express luciferase following integration of the construct pIR1SAT-LUC(a)-TK(b) (strain B5113) in the rRNA locus (S. M. Hickerson and S. M. Beverley, unpublished data). Enones (stock solutions in DMSO) were diluted (1 nM to 500 μM, in a final 1% DMSO) and added (1 μl per well) to 96-well microplates using an Eppendorf epMotion 5070 automated pipetting system. Promastigotes (10^6/well) were added, and parasite survival was assessed by luciferase activity with the substrate 5′-fluoroluciferin (ONE-Glo Luciferase Assay System, Promega) after 96-h incubation at 28° C., using a luminometer (Luminoskan, Thermo). The bioluminescent intensity was a direct measure of the survival of parasites. This was determined by comparing bioluminescent intensity of L. major parasites live/dead with MTT assay and cell counting. The primary compound screens were performed as single wells.

[3] = test system: L. major intracellular amastigotes; experiment: High-content imaging infectivity assay, L. major amastigote-infected macrophages; type: cell-based, Leishmania major; conditions: for most effective concentration against L. major intracellular amastigotes / IC50: 48 h treatment; for IC50: Leishmania major, Peritoneal macrophage, in Mus musculus, in BALB/c peritoneal macrophages; for percentage of infected macrophages vs 1% DMSO control: constraints 2, 5 and 8 or more amastigotes per macrophage; for effectiveness compared with positive control amphotericin B 5 μM: percentage of infected macrophages, NC901, NC884 at 5 μM
Protocol: In vitro infectivity experiments were carried out to determine the activity of compounds NC901, NC884, and NC2459 against L. major intracellular amastigotes. Intraperitoneal macrophages isolated from BALB/c mice were infected with L. major metacyclic promastigotes. After the parasites were allowed to establish infection for 48 hours, the compounds were added and incubated for an additional 48 hours. The compounds anti-leishmanial activity was evaluated using the BD Pathway Bioimager™. In the analysis several constraints were used, such as 2, 5, and 8 or more amastigotes per macrophage.
In vitro evaluation of the NC drug library on infectivity experiments by high-content imaging assay. Mice intraperitoneal macrophages and human osteoblasts were placed in a microplate and infected with the amastigote forms of L. major strain Friedlin clone V1 and T. cruzi Y strain respectably, followed by treatment with NC lead compounds (as shown in Table 1). Briefly, Image acquisition and analyses of the plates were carried out using the BD Pathway 855 high-resolution fluorescence bioimager system (BD Biosciences). Filter sets appropriate for the excitation and emission spectra of Draq5 were utilized. Images from […] (3×3 montage) were acquired per well with a 20× objective. To perform the host cell segmentation and counting of parasites, the BD AttoVision™ v1.6.2 Sub Object analysis was used. Draq5 creates a background, staining the host cell and parasite nucleus, but defining the cytoplasm as well, determining this way the amount of parasites within each mammalian cell. The host cell nucleus was excluded by size difference. Subsequently, the infection index was calculated based on the mean of these triplicate values by multiplying the percentage of infected cells and the constraints used in the HCIA assay that was of 2, 3, 5, and 8 parasites per cell.

[4] = 96 h incubation, read-out: T. cruzi Epimastigotes EC50
[5] = 96 hour incubation, read-out: EC50, T. cruzi epimastigotes
[6] = 96 h, read-out: estimated EC50, L. major promastigotes
[7] = 96 h incubation, read-out: L. major Promastigotes EC50

SMILES | footpad swelling [1] | EC50 (T. cruzi epimastigotes; [4]) [nM] | EC50 (T. cruzi epimastigotes; [5]) [nM] | mitochondrial membrane potential (Δψm) vs 1% DMSO (L. major promastigotes) | EC50 [2, 6] [nM] | EC50 [2, 7] [nM] | most effective concentration against L. major intracellular amastigotes [3] [µM] | IC50 [3] [nM] | percentage of infected macrophages vs 1% DMSO control [3] | effectiveness compared with positive control amphotericin B 5 μM [3] | time until measurable lesions start developing ([1]; 10^5 parasites) | mice never developing a lesion ([1]; 10^5 parasites, monitored up to twelve weeks post-infection) | lesion size at 33 days post-infection ([1]; 10^6 parasites, 8 mg/kg/day extended treatment, p≦0.05) | PCR of L. major MetAP1 gene in footpad ([1]; mouse displaying no lesion) | EC50 ([2]; after a 96 hour treatment, read-out: estimated EC50, L. major promastigotes) [nM]
CN(C)CC1CCC(CN(C)C)C1=O (stereo not shown) [NC884] | reduced the footpad swelling similar to that of the positive control | 475 | 475 | concentration dependent loss in Δψm | 1120 | 1120 | 5 | 937 ± 130 | significant decrease in the percentage of infected cells | not as effective as the positive control amphotericin B | – | – | – | – | –
CN(C)CC1CCCC(CN(C)C)C1=O (stereo not shown) [NC901] | reduced the footpad swelling similar to that of the positive control | 468 | 468 | concentration dependent loss in Δψm | 453 | 450 | 5 | 1870 ± 200 | significant decrease in the percentage of infected cells | not as effective as the positive control amphotericin B | – | – | – | – | –
O=C1/C(=C/c2ccccc2)CN(C(=O)C(=O)N2C/C(=C\c3ccccc3)C(=O)/C(=C/c3ccccc3)C2)C/C1=C\c1ccccc1 [NC2459] | much lower amount of swelling than all groups | 20 | 20 | concentration dependent loss in Δψm | – | 20 | 1.25 | 625 ± 110 | significant decrease in the percentage of infected cells | significantly more effective | 6-7 weeks post-infection | one out of the three mice never developed a lesion | significantly smaller lesion than all other groups | no traces of L. major genomic DNA | 20
